Experimental findings from PMC7351726, “Design, synthesis, structure, in vitro cytotoxic activity evaluation and docking studies on target enzyme GSK-3β of new indirubin-3ʹ-oxime derivatives” (Scientific Reports, 2020) are described below.

Format in all cases: cell-based
One assay relates to HL-60 cells. Briefly: In vitro cytotoxicity, MTT assay, HL-60. Particulars: Homo sapiens; HL-60, MTT, 72 h, mean ± SD, triplicate. The procedure: (§1) For Hepatocarcinoma (HepG2), human lung carcinoma (LU-1), human colorectal adenocarcinoma (SW480) and human normal embryonic kidney (HEK-293) cell lines, the culture medium was Dulbecco’s Modified Eagle’s Medium (DMEM) (Hyclone, USA). The medium supplementation included 10% fetal bovine serum (Hyclone), 100 units/ml penicillin, and 100 μg/ml streptomycin at 37 °C in an atmosphere with 5% CO2 and 95% humidity. For the human leukemia (HL-60) cell line, the maintenance was performed in RPMI-1640 medium (Life Technologies, Inc.) supplemented with 10% heat-inactivated fetal bovine serum (Hyclone) and 100 units/ml penicillin, and 100 μg/ml streptomycin.
For HL-60 cell line, 5 × 10^3 cells/well were seeded in 96-multiwell plate and cultured overnight. The test compounds were serially diluted to the wells with concentrations ranging at 20 μM; 4 μM; 0.8 μM and 0.16 μM then incubated for 72 h. Thereafter, each well was added with 10 μl of MTT (5 mg/ml in 1X PBS), followed by incubation for 3 h and centrifugation at 1,500 rpm for 10 min. The media were discarded then added 150 μl DMSO to each well. Optical density was measured using a microplate reader at 540 nm.

Another assay concerns LU-1 cells. Briefly: In vitro cytotoxicity, SRB cell viability assay, LU-1. Particulars: Homo sapiens, Lu1; LU-1, SRB, 48 h, mean ± SD, triplicate. The procedure: as §1
(§2) Cell viability assay was conducted using SRB method for HepG2, LU-1, SW480 and HEK-293 cell lines, based on the measurement of protein content. Cells were plated with 180 μl growth medium into 96-microwell plates (4 × 10^4 cells per well) and allowed to grow overnight. Test compounds at various concentrations including 20 μM; 4 μM; 0.8 μM; 0.16 μM with incubation medium were supplemented and cultivated for additional 48 h in the same conditions. Afterwards, the removal of the medium was performed and cold 20% (wt/vol) TCA was used to fix the cell monolayer attached to the wall for 1 h at 4 °C, followed by staining with 1X SRB staining solution at room temperature for 30 min and the removal of the residual dye via repeated washing with 1% (v/v) acetic acid. For OD determination at 515 nm, an ELISA Plate Reader (Bio-Rad) was utilized to analyze the protein-bound dye, which dissolved in 10 mM Tris base solution. […] The cell survival rate (SR) was calculated as SR = [(ODt − OD0)/(ODc − OD0)] × 100, where the subscript 0, t and c represent time-zero, […] and the DMSO control sample.

The test system of the next assay is HepG2 cells. Description: In vitro cytotoxicity, SRB cell viability assay, HepG2. The following applies: Homo sapiens, 48 h, mean ± SD, triplicate. As to the method:
as §1, §2

In another assay the test system is SW480 cells. Briefly: In vitro cytotoxicity, SRB cell viability assay, SW480. Particulars: Homo sapiens, 48 h, mean ± SD, triplicate. The procedure: as §1, §2
For the next assay, the system named is HEK-293 cells. Description: In vitro cytotoxicity, SRB cell viability assay, normal kidney HEK-293. The following applies: Homo sapiens, HEK293, HEK-293 normal kidney cells, 48 h, mean ± SD, triplicate. As to the method: as §1, §2

In general, IC50 refers to the concentration that inhibits the measured activity by half. Lower therefore signals greater potency in that assay. In the case of `O=C1Nc2ccccc2C1=C1Nc2ccccc2C1=NO` [Compound 2, indirubin-3′-oxime, reference compound], the IC50 in the assay on HL-60 cells is 16.5 ± 0.94 µM; with LU-1 cells, 16.4 ± 1.05 µM; in the assay with HepG2 cells, 16 ± 0.62 µM; in the assay on SW480 cells, 15.7 ± 0.74 µM; with HEK-293 cells, 14.2 ± 0.71 µM.

For `O=C1Nc2ccccc2/C1=C1/Nc2ccccc2C1=O` [Compound 1, indirubin], the IC50 with HL-60 cells, in the assay with LU-1 cells, with HepG2 cells, in the assay with SW480 cells and in the assay on HEK-293 cells was above 20 µM in each case.

Consider `CN(C)CCn1cc(CN2C(=O)/C(=C3\Nc4ccccc4\C3=N/O)c3ccccc32)nn1` [Compound 6m], for which the IC50 in the assay on HL-60 cells is 16 ± 0.38 µM; with LU-1 cells, 8.74 ± 1.06 µM; in the assay with HepG2 cells, 15.3 ± 0.17 µM; with SW480 cells, 14.4 ± 0.72 µM; with HEK-293 cells, 11.9 ± 1.75 µM.

Take `CCOc1cccc(/C=C/C(=O)c2ccc(OCCn3cc(CN4C(=O)/C(=C5\Nc6ccccc6\C5=N/O)c5ccccc54)nn3)cc2O)c1` [Compound 6g]: the IC50 in the assay with HL-60 cells stood at 4.82 ± 0.46 µM; in the assay with LU-1 cells, 3.96 ± 0.62 µM; in the assay on HepG2 cells, 5.68 ± 0.71 µM; with SW480 cells, 4.1 ± 0.57 µM; in the assay on HEK-293 cells it was 1.8 ± 0.21 µM.

In the case of `Cc1c2ccncc2c(C)c2c1[nH]c1ccccc12` [Ellipticine, reference compound], the IC50 came to 2.19 ± 1.12 µM in the assay on HL-60 cells; 2.5 ± 0.82 µM in the assay on LU-1 cells; 1.93 ± 0.54 µM with HepG2 cells; 1.76 ± 0.63 µM in the assay on SW480 cells; 0.32 ± 0.03 µM with HEK-293 cells.

As to `CCCOc1cccc(/C=C/C(=O)c2ccc(OCCn3cc(CN4C(=O)/C(=C5\Nc6ccccc6\C5=N/O)c5ccccc54)nn3)cc2O)c1` [Compound 6k], the IC50 in the assay with HL-60 cells turned out to be 1.29 ± 0.14 µM; in the assay on LU-1 cells, 2.5 ± 0.34 µM; with HepG2 cells it was 2.95 ± 0.19 µM; with SW480 cells, 2.91 ± 0.13 µM; in the assay with HEK-293 cells, 1.92 ± 0.17 µM.

As for `O=C(/C=C/c1ccccc1)c1ccc(OCCn2cc(CN3C(=O)/C(=C4\Nc5ccccc5\C4=N/O)c4ccccc43)nn2)cc1O` [Compound 6a], the IC50 with HL-60 cells came to 2.39 ± 0.46 µM; in the assay on LU-1 cells, 2.26 ± 0.32 µM; in the assay on HepG2 cells it was 3.56 ± 0.75 µM; in the assay with SW480 cells, 3.36 ± 0.64 µM; in the assay on HEK-293 cells, 3.21 ± 0.43 µM.

For the compound `COc1ccc(/C=C/C(=O)c2ccc(OCCn3cc(CN4C(=O)/C(=C5\Nc6ccccc6\C5=N/O)c5ccccc54)nn3)cc2O)cc1` [Compound 6e], the IC50 was 3.27 ± 0.37 µM in the assay on HL-60 cells; 3.28 ± 0.48 µM in the assay with LU-1 cells; 4.62 ± 1.07 µM in the assay with HepG2 cells; 4.66 ± 0.92 µM in the assay with SW480 cells; 6.98 ± 0.25 µM in the assay on HEK-293 cells.

Regarding `C#CCN1C(=O)/C(=C2\Nc3ccccc3C2=O)c2ccccc21` [Compound 3], the IC50 with HL-60 cells, in the assay with LU-1 cells, in the assay on HepG2 cells, in the assay on SW480 cells and in the assay with HEK-293 cells was above 20 µM throughout.

With `CCOc1ccc(/C=C/C(=O)c2ccc(OCCn3cc(CN4C(=O)/C(=C5\Nc6ccccc6\C5=N/O)c5ccccc54)nn3)cc2O)cc1` [Compound 6h], the IC50 in the assay with HL-60 cells was determined as 6.5 ± 0.98 µM; in the assay with LU-1 cells it was 8.74 ± 0.55 µM; in the assay on HepG2 cells, 14.2 ± 1.79 µM; in the assay on SW480 cells, 14.1 ± 1.18 µM; with HEK-293 cells, 9.74 ± 0.53 µM.

`CCCOc1ccccc1/C=C/C(=O)c1ccc(OCCn2cc(CN3C(=O)/C(=C4\Nc5ccccc5\C4=N/O)c4ccccc43)nn2)cc1O` [Compound 6i]: the IC50 in the assay with HL-60 cells is 1.28 ± 0.34 µM; in the assay with LU-1 cells, 2.07 ± 0.26 µM; with HepG2 cells it was 2.28 ± 0.12 µM; in the assay with SW480 cells, 3.43 ± 0.84 µM; in the assay on HEK-293 cells, 0.85 ± 0.05 µM.

On to `O=C1/C(=C2\Nc3ccccc3\C2=N/O)c2ccccc2N1Cc1cn(CCN2CCOCC2)nn1` [Compound 6p], for which the IC50 was 11.2 ± 1.04 µM with HL-60 cells; 8.61 ± 0.57 µM with LU-1 cells; 10.6 ± 0.79 µM in the assay with HepG2 cells; 11.7 ± 0.48 µM in the assay with SW480 cells; 7.72 ± 0.42 µM in the assay on HEK-293 cells.

For `COc1cccc(/C=C/C(=O)c2ccc(OCCn3cc(CN4C(=O)/C(=C5\Nc6ccccc6\C5=N/O)c5ccccc54)nn3)cc2O)c1` [Compound 6d], the IC50 with HL-60 cells was 3.4 ± 0.76 µM; in the assay on LU-1 cells it was 2.85 ± 0.74 µM; with HepG2 cells it was 3.76 ± 0.75 µM; with SW480 cells, 4.46 ± 1.18 µM; with HEK-293 cells, 2.01 ± 0.64 µM.

Consider `O=C1/C(=C2\Nc3ccccc3\C2=N/O)c2ccccc2N1Cc1cn(CCn2ccnc2)nn1` [Compound 6o], for which the IC50 with HL-60 cells worked out at 9.39 ± 0.45 µM; with LU-1 cells, 8.8 ± 0.38 µM; in the assay with HepG2 cells, 11.7 ± 0.26 µM; in the assay on SW480 cells, 11.2 ± 0.76 µM; in the assay with HEK-293 cells, 5.89 ± 0.75 µM.

Consider `O=C1/C(=C2\Nc3ccccc3\C2=N/O)c2ccccc2N1Cc1cn(CCN2CCCCC2)nn1` [Compound 6n], for which the IC50 in the assay with HL-60 cells was 10.4 ± 0.84 µM; with LU-1 cells, 10.1 ± 0.44 µM; in the assay on HepG2 cells, 11.7 ± 0.23 µM; with SW480 cells, 12.5 ± 0.53 µM; in the assay on HEK-293 cells, 9.52 ± 0.07 µM.

Turning to `COc1ccccc1/C=C/C(=O)c1ccc(OCCn2cc(CN3C(=O)/C(=C4\Nc5ccccc5\C4=N/O)c4ccccc43)nn2)cc1O` [Compound 6c], the IC50 with HL-60 cells stood at 1.43 ± 0.22 µM; with LU-1 cells, 2.99 ± 0.55 µM; in the assay with HepG2 cells, 3.38 ± 0.68 µM; in the assay on SW480 cells, 3.8 ± 0.52 µM; with HEK-293 cells it was 1.19 ± 0.12 µM.

On to `C#CCN1C(=O)/C(=C2\Nc3ccccc3\C2=N/O)c2ccccc21` [Compound 4], for which the IC50 in the assay with HL-60 cells was 15.3 ± 0.35 µM; with LU-1 cells, 19.6 ± 1.23 µM; in the assay on HepG2 cells it was above 20 µM; in the assay with SW480 cells, 18.6 ± 0.91 µM; in the assay with HEK-293 cells, 16.2 ± 0.33 µM.

For `COc1cc(/C=C/C(=O)c2ccc(OCCn3cc(CN4C(=O)/C(=C5\Nc6ccccc6\C5=N/O)c5ccccc54)nn3)cc2O)cc(OC)c1OC` [Compound 6b], the IC50 in the assay on HL-60 cells, in the assay on LU-1 cells, in the assay with HepG2 cells, with SW480 cells and in the assay on HEK-293 cells was above 20 µM throughout.

As to `CCCOc1ccc(/C=C/C(=O)c2ccc(OCCn3cc(CN4C(=O)/C(=C5\Nc6ccccc6\C5=N/O)c5ccccc54)nn3)cc2O)cc1` [Compound 6l], the IC50 with HL-60 cells came to 1.28 ± 0.16 µM; in the assay on LU-1 cells, 2.07 ± 0.31 µM; with HepG2 cells, 3.28 ± 0.25 µM; in the assay with SW480 cells it was 3.03 ± 0.11 µM; in the assay with HEK-293 cells it was 7.12 ± 0.18 µM.

For the compound `CCOc1ccccc1/C=C/C(=O)c1ccc(OCCn2cc(CN3C(=O)/C(=C4\Nc5ccccc5\C4=N/O)c4ccccc43)nn2)cc1O` [Compound 6f], the IC50 with HL-60 cells is 0.98 ± 0.12 µM; in the assay on LU-1 cells it was 1.3 ± 0.14 µM; with HepG2 cells, 2.01 ± 0.43 µM; in the assay with SW480 cells, 2.54 ± 0.25 µM; with HEK-293 cells, 1.03 ± 0.11 µM.
